According to US8952024B2, “Herbicidal pyrimidone derivatives” (E I du Pont de Nemours and Company, priority 2009, dated 2015):

Assays:
Test in all cases: Test B pre-/postemergence plant response
Format in all cases: in vivo
[1] = test system: Surinam grass (Brachiaria decumbens)
Method in brief: (§1)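 Pre-em in loam/sand; post-em at 1–4 leaf (2–18 cm) in peat mix. Solvent + surfactant formulation. Greenhouse 13–15 d; visual % control vs untreated, 0–100.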

[2] = test system: cocklebur (Xanthium strumarium)
Method in brief: as §1

[3] = test system: galium (catchweed bedstraw, Galium aparine); settings: Preemergence; for Galium plant response rating: 125 g ai/ha
Method in brief: as §1

kochia (Kochia scoparia) = settings: for Kochia plant response rating: 250 g ai/ha, scale 0 to 100
Method in brief: as §1

[4] = test system: lambsquarters (Chenopodium album)
Method in brief: as §1

[5] = test system: large crabgrass (Digitaria sanguinalis)
Method in brief: as §1

[6] = test system: nightshade (eastern black nightshade, Solanum ptycanthum); settings: Preemergence; for Nightshade plant response rating: 125 g ai/ha
Method in brief: as §1

[7] = test system: sunflower (common oilseed sunflower, Helianthus annuus); settings: Preemergence; for Sunflower plant response rating: 125 g ai/ha
Method in brief: as §1

wild oat (Avena fatua) = test system: wild oat (Avena fatua)
Method in brief: as §1

[8] = test system: woolly cupgrass (Eriochloa villosa)
Method in brief: as §1

[9] = test system: yellow nutsedge (Cyperus esculentus)
Method in brief: as §1

[10] = test system: goosegrass (Eleusine indica); settings: Preemergence, 62 g ai/ha; scale 0 to 100, 0 no effect, 100 complete control
[11] = 250 g ai/ha, Preemergence, 0 to 100 scale
[12] = Postemergence, 62 g ai/ha, scale 0 (no effect) to 100 (complete control), 13 to 15 days
[13] = Postemergence, 125 g ai/ha, visual rating after 13 to 15 days, scale 0 (no effect) to 100 (complete control)
[14] = Preemergence, 31 g ai/ha, scale 0 to 100 (0 no effect, 100 complete control)
[15] = Preemergence, 125 g ai/ha, 0 to 100 scale
[16] = Postemergence, 31 g ai/ha, scale 0 to 100 (0 no effect, 100 complete control)
[17] = Postemergence, 250 g ai/ha, scale 0 to 100
[18] = Preemergence, 62 g ai/ha, scale 0 to 100, 0 no effect, 100 complete control
[19] = 31 g ai/ha, scale 0 to 100 (0 no effect, 100 complete control)
[20] = 62 g ai/ha, scale 0 to 100, 0 no effect, 100 complete control
[21] = 31 g ai/ha, postemergence, scale 0 to 100, 0 is no effect, 100 is complete control

For `Cc1cc(F)ccc1-n1c(-c2ccccc2)ncc(C(=O)C2=C(O)CCCC2=O)c1=O` [Compound 48], the “Plant response rating, Surinam Grass” value [1, 11] was 100, the “Plant response rating, Surinam Grass” value [1, 12] was 85 and the “Plant response rating, Surinam Grass” value [1, 13] was 95. For the same compound, the “Plant response rating, Surinam Grass” value [1, 14] was 80, the “Surinam Grass plant response rating” value [1, 15] was 100 and the “Plant response rating, Cocklebur” value [2, 11] was 85. The “Plant response rating, Cocklebur” value [2, 16] was 95, the “Plant response rating, Cocklebur” value [2, 12] was 95 and the “Plant response rating, Cocklebur” value [2, 13] was 98. For the same compound, the “Cocklebur plant response rating” value [2, 17] was 98, the “Plant response rating, Cocklebur” value [2, 18] was 0 and the “Cocklebur plant response rating” value [2, 15] was 0. The “Plant response rating, Galium” value ([3]; 250 g ai/ha, 0 to 100 scale) was 70, the “Plant response rating, Galium” value [3, 19] was 0 and the “Plant response rating, Galium” value [3, 20] was 60. For the same compound, the “Galium plant response rating” value ([3]; 0 to 100 scale) was 60, the “Plant response rating, Kochia” value (kochia (Kochia scoparia); [12]) was 98 and the “Plant response rating, Kochia” value (kochia (Kochia scoparia); [13]) was 100. For the same compound, the “Kochia plant response rating” value (kochia (Kochia scoparia); Postemergence) was 100, the “Plant response rating, Lambsquarters” value [4, 11] was 100 and the “Plant response rating, Lambsquarters” value [4, 12] was 95. The “Plant response rating, Lambsquarters” value [4, 13] was 100, the “Lambsquarters plant response rating” value [4, 17] was 100 and the “Plant response rating, Lambsquarters” value [4, 14] was 100. The “Plant response rating, Lambsquarters” value [4, 18] was 100, the “Lambsquarters plant response rating” value [4, 15] was 100 and the “Plant response rating, Crabgrass, Large” value [5, 11] was 100. The “Plant response rating, Crabgrass, Large” value [5, 16] was 85, the “Plant response rating, Crabgrass, Large” value [5, 12] was 85 and the “Plant response rating, Crabgrass, Large” value [5, 13] was 95. For the same compound, the “Crabgrass, Large plant response rating” value [5, 17] was 95, the “Plant response rating, Crabgrass, Large” value [5, 14] was 75 and the “Plant response rating, Crabgrass, Large” value [5, 18] was 90. The “Crabgrass, Large plant response rating” value [5, 15] was 100, the “Plant response rating, Nightshade” value ([6]; 250 g ai/ha, 0 to 100 scale) was 100 and the “Plant response rating, Nightshade” value [6, 19] was 100. For the same compound, the “Plant response rating, Nightshade” value [6, 20] was 100, the “Nightshade plant response rating” value ([6]; 0 to 100 scale) was 100 and the “Plant response rating, Sunflower” value ([7]; 250 g ai/ha, 0 to 100 scale) was 80. The “Plant response rating, Sunflower” value [7, 19] was 0, the “Sunflower plant response rating” value ([7]; 0 to 100 scale) was 80 and the “Plant response rating, Oat, Wild” value (wild oat (Avena fatua); [11]) was 15. For the same compound, the “Plant response rating, Oat, Wild” value (wild oat (Avena fatua); [12]) was 50, the “Plant response rating, Oat, Wild” value (wild oat (Avena fatua); [13]) was 85 and the “Plant response rating, Oat, Wild” value (wild oat (Avena fatua); [14]) was 0. For the same compound, the “Oat, Wild plant response rating” value (wild oat (Avena fatua); [15]) was 0, the “Plant response rating, Cupgrass, Woolly” value [8, 11] was 95 and the “Plant response rating, Cupgrass, Woolly” value [8, 16] was 80. The “Plant response rating, Cupgrass, Woolly” value [8, 12] was 80, the “Plant response rating, Cupgrass, Woolly” value [8, 13] was 90 and the “Cupgrass, Woolly plant response rating” value [8, 17] was 95. The “Plant response rating, Cupgrass, Woolly” value [8, 14] was 10, the “Plant response rating, Cupgrass, Woolly” value [8, 18] was 10 and the “Cupgrass, Woolly plant response rating” value [8, 15] was 75. For the same compound, the “Plant response rating, Nutsedge, Yellow” value [9, 11] was 90, the “Plant response rating, Nutsedge, Yellow” value [9, 12] was 45 and the “Plant response rating, Nutsedge, Yellow” value [9, 13] was 60. The “Plant response rating, Nutsedge, Yellow” value [9, 14] was 20, the “Nutsedge, Yellow plant response rating” value [9, 15] was 85 and the “Plant response rating, Goosegrass” value [10] was 100.

In the case of `CCn1c(-c2ccccc2)ncc(C(=O)C2=C(O)CCCC2=O)c1=O` [Compound 49], the “Plant response rating, Surinam Grass” value [1, 21] is reported as 15, the “Plant response rating, Surinam Grass” value [1, 11] is reported as 85 and the “Plant response rating, Surinam Grass” value [1, 12] is reported as 30. The “Plant response rating, Surinam Grass” value [1, 13] was 55, the “Plant response rating, Surinam Grass” value [1, 14] was 0 and the “Surinam Grass plant response rating” value [1, 15] was 75. The “Plant response rating, Cocklebur” value [2, 21] was 65, the “Plant response rating, Cocklebur” value [2, 11] was 55 and the “Plant response rating, Cocklebur” value [2, 12] was 80. The “Plant response rating, Cocklebur” value [2, 13] was 80, the “Cocklebur plant response rating” value [2, 17] was 85 and the “Plant response rating, Cocklebur” value [2, 14] was 0. The “Plant response rating, Cocklebur” value [2, 18] was 20, the “Cocklebur plant response rating” value [2, 15] was 45 and the “Plant response rating, Galium” value ([3]; 250 g ai/ha, 0 to 100 scale) was 95. For the same compound, the “Plant response rating, Galium” value [3, 19] was 0, the “Plant response rating, Galium” value [3, 20] was 80 and the “Galium plant response rating” value ([3]; 0 to 100 scale) was 90. The “Plant response rating, Kochia” value (kochia (Kochia scoparia); [21]) was 55, the “Plant response rating, Kochia” value (kochia (Kochia scoparia); [12]) was 65 and the “Plant response rating, Kochia” value (kochia (Kochia scoparia); [13]) was 80. For the same compound, the “Kochia plant response rating” value (kochia (Kochia scoparia); Postemergence) was 90, the “Plant response rating, Lambsquarters” value [4, 21] was 70 and the “Plant response rating, Lambsquarters” value [4, 11] was 98. For the same compound, the “Plant response rating, Lambsquarters” value [4, 12] was 80, the “Plant response rating, Lambsquarters” value [4, 13] was 90 and the “Lambsquarters plant response rating” value [4, 17] was 98. For the same compound, the “Plant response rating, Lambsquarters” value [4, 14] was 95, the “Plant response rating, Lambsquarters” value [4, 18] was 95 and the “Lambsquarters plant response rating” value [4, 15] was 98. For the same compound, the “Plant response rating, Crabgrass, Large” value [5, 21] was 75, the “Plant response rating, Crabgrass, Large” value [5, 11] was 100 and the “Plant response rating, Crabgrass, Large” value [5, 12] was 75. The “Plant response rating, Crabgrass, Large” value [5, 13] was 80, the “Crabgrass, Large plant response rating” value [5, 17] was 85 and the “Plant response rating, Crabgrass, Large” value [5, 14] was 75. The “Plant response rating, Crabgrass, Large” value [5, 18] was 95, the “Crabgrass, Large plant response rating” value [5, 15] was 98 and the “Plant response rating, Nightshade” value ([6]; 250 g ai/ha, 0 to 100 scale) was 98. For the same compound, the “Plant response rating, Nightshade” value [6, 19] was 98, the “Plant response rating, Nightshade” value [6, 20] was 98 and the “Nightshade plant response rating” value ([6]; 0 to 100 scale) was 98. The “Plant response rating, Sunflower” value ([7]; 250 g ai/ha, 0 to 100 scale) was 75, the “Plant response rating, Sunflower” value [7, 19] was 60 and the “Sunflower plant response rating” value ([7]; 0 to 100 scale) was 75. For the same compound, the “Plant response rating, Oat, Wild” value (wild oat (Avena fatua); [21]) was 0, the “Plant response rating, Oat, Wild” value (wild oat (Avena fatua); [11]) was 0 and the “Plant response rating, Oat, Wild” value (wild oat (Avena fatua); [12]) was 5. The “Plant response rating, Oat, Wild” value (wild oat (Avena fatua); [13]) was 5, the “Plant response rating, Oat, Wild” value (wild oat (Avena fatua); [14]) was 0 and the “Oat, Wild plant response rating” value (wild oat (Avena fatua); [15]) was 0. The “Plant response rating, Cupgrass, Woolly” value [8, 21] was 50, the “Plant response rating, Cupgrass, Woolly” value [8, 11] was 20 and the “Plant response rating, Cupgrass, Woolly” value [8, 12] was 50. For the same compound, the “Plant response rating, Cupgrass, Woolly” value [8, 13] was 55, the “Cupgrass, Woolly plant response rating” value [8, 17] was 55 and the “Plant response rating, Cupgrass, Woolly” value [8, 14] was 0. For the same compound, the “Plant response rating, Cupgrass, Woolly” value [8, 18] was 0, the “Cupgrass, Woolly plant response rating” value [8, 15] was 0 and the “Plant response rating, Nutsedge, Yellow” value [9, 21] was 65. The “Plant response rating, Nutsedge, Yellow” value [9, 11] was 90, the “Plant response rating, Nutsedge, Yellow” value [9, 12] was 65 and the “Plant response rating, Nutsedge, Yellow” value [9, 13] was 70. For the same compound, the “Plant response rating, Nutsedge, Yellow” value [9, 14] was 60, the “Nutsedge, Yellow plant response rating” value [9, 15] was 85 and the “Plant response rating, Goosegrass” value [10] was 95.
